Experimental data reported in ChEMBL document CHEMBL3745622 (Bioorg Med Chem, 2016).

Test system: B16
Test: cells
Details: Mus musculus, B16, 72 h
Description: Inhibition of alpha-MSH-stimulated melanin production in mouse B16 cells after 72 hrs by microplate reader analysis

SMILES | IC50
CC(C)=CCC/C(C)=C/Cc1c(O)ccc(C2COc3cc(O)cc(O)c3C2=O)c1O (stereo unspecified) | 42.3 µM
COc1c2c(cc3c1C[C@H](c1ccc(O)cc1O)CO3)OC(C)(C)C=C2 | 13 µM

Test system: not listed separately
Test: in vitro
Details: mouse, B16 cells
Description: Cytotoxicity against mouse B16 cells assessed as cell viability after 72 hrs by MTT assay

SMILES | CC50 at 72 h
CC(C)=CCC/C(C)=C/Cc1c(O)ccc(C2COc3cc(O)cc(O)c3C2=O)c1O (stereo unspecified) | 241 µM
COc1c2c(cc3c1C[C@H](c1ccc(O)cc1O)CO3)OC(C)(C)C=C2 | 104 µM

Target: T1, Tyrosinase (Agaricus bisporus, UniProt O42713)
T1 sequence (O42713 whole entry): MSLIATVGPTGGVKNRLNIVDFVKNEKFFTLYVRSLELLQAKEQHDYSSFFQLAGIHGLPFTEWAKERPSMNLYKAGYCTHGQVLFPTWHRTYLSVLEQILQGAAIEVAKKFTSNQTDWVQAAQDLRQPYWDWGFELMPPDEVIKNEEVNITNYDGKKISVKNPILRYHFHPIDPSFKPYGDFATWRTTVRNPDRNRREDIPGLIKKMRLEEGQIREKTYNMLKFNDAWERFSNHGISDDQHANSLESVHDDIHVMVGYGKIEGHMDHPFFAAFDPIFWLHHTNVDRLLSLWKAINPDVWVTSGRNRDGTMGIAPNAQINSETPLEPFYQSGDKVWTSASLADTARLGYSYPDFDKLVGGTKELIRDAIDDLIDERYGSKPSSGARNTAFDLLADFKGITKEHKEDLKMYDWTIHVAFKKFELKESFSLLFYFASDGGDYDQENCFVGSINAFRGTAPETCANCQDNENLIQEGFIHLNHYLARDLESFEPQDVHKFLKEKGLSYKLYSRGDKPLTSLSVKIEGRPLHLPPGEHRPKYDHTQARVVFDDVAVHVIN
Test: Time dependent inhibition of monophenolase activity of mushroom tyrosinase using L-tyrosine as substrate measured every 30 secs by Morrison and Walsh plot analysis
Details: read-out: Ki(app)

SMILES | Ki
CC(C)=CCC/C(C)=C/Cc1c(O)ccc(C2COc3cc(O)cc(O)c3C2=O)c1O (stereo unspecified) | 0.151 µM
COc1c2c(cc3c1C[C@H](c1ccc(O)cc1O)CO3)OC(C)(C)C=C2 | 0.00148 µM

Target: T1, Tyrosinase
Test: not given
Details: not given

IC50 | SMILES
> 200 µM | COc1c(C2COc3cc(O)c(CC=C(C)C)c(O)c3C2=O)ccc(O)c1CC=C(C)C (stereo unspecified)
> 200 µM | CC(C)=CCC/C(C)=C/Cc1cc(C2Oc3cc(O)c(C)c(O)c3C(=O)C2=O)ccc1O (stereo unspecified)
> 200 µM | CC(C)=CCc1c(O)ccc(C2COc3cc(O)c(CC=C(C)C)c(O)c3C2=O)c1O (stereo unspecified)
144 µM | CC(C)=CCC/C(C)=C/Cc1c(O)ccc(C2(O)COc3cc(O)cc(O)c3C2=O)c1O (stereo unspecified)
> 200 µM | CC(C)=CCC/C(C)=C/Cc1cc(C2CC(=O)c3c(cc(O)c(C)c3O)O2)ccc1O (stereo unspecified)

Second part, the compound before the results:

SMILES | IC50
CC(C)=CCC/C(C)=C/COc1ccc(-c2coc3cc(O)cc(O)c3c2=O)cc1O | > 200 µM
CC(C)=CCCCC1(C)C=Cc2cc(-c3coc4cc(O)cc(O)c4c3=O)ccc2O1 (stereo unspecified) | > 200 µM
CC(C)=CCC/C(C)=C/Cc1cc(-c2coc3cc(O)cc(O)c3c2=O)ccc1O | > 200 µM
CC(C)=CCC/C(C)=C/Cc1c(O)ccc(C2COc3cc(O)cc(O)c3C2=O)c1O (stereo unspecified) | 128 µM
COc1c2c(cc3c1C[C@H](c1ccc(O)cc1O)CO3)OC(C)(C)C=C2 | 0.5 µM
COc1cc(O)ccc1C1COc2cc3c(c(O)c2C1=O)C=CC(C)(C)O3 (stereo unspecified) | 146 µM
COc1cc(C2COc3cc4c(c(OC)c3C2)C=CC(C)(C)O4)c(O)cc1O (stereo unspecified) | > 200 µM
C/C(=C\Cc1ccc(-c2coc3cc(O)cc(O)c3c2=O)cc1O)CCCC(C)(C)O | > 200 µM
CC(C)=CCC/C(C)=C/Cc1c(O)ccc(-c2coc3cc(O)cc(O)c3c2=O)c1O | > 200 µM

Target: T1, Tyrosinase
Test: not given
Details: not given
Remark: another data set of the same source

IC50 | SMILES
> 200 µM | COc1c(C2COc3cc(O)c(CC=C(C)C)c(O)c3C2=O)ccc(O)c1CC=C(C)C (stereo unspecified)
> 200 µM | CC(C)=CCC/C(C)=C/Cc1cc(C2Oc3cc(O)c(C)c(O)c3C(=O)C2=O)ccc1O (stereo unspecified)
> 200 µM | CC(C)=CCc1c(O)ccc(C2COc3cc(O)c(CC=C(C)C)c(O)c3C2=O)c1O (stereo unspecified)
18.4 µM | CC(C)=CCC/C(C)=C/Cc1c(O)ccc(C2(O)COc3cc(O)cc(O)c3C2=O)c1O (stereo unspecified)
> 200 µM | CC(C)=CCC/C(C)=C/Cc1cc(C2CC(=O)c3c(cc(O)c(C)c3O)O2)ccc1O (stereo unspecified)

The next lines start with the compound.

SMILES | IC50
CC(C)=CCC/C(C)=C/COc1ccc(-c2coc3cc(O)cc(O)c3c2=O)cc1O | > 200 µM
CC(C)=CCCCC1(C)C=Cc2cc(-c3coc4cc(O)cc(O)c4c3=O)ccc2O1 (stereo unspecified) | > 200 µM
CC(C)=CCC/C(C)=C/Cc1cc(-c2coc3cc(O)cc(O)c3c2=O)ccc1O | > 200 µM
CC(C)=CCC/C(C)=C/Cc1c(O)ccc(C2COc3cc(O)cc(O)c3C2=O)c1O (stereo unspecified) | 2.9 µM
COc1c2c(cc3c1C[C@H](c1ccc(O)cc1O)CO3)OC(C)(C)C=C2 | 0.03 µM
COc1cc(O)ccc1C1COc2cc3c(c(O)c2C1=O)C=CC(C)(C)O3 (stereo unspecified) | > 200 µM
COc1cc(C2COc3cc4c(c(OC)c3C2)C=CC(C)(C)O4)c(O)cc1O (stereo unspecified) | > 200 µM
C/C(=C\Cc1ccc(-c2coc3cc(O)cc(O)c3c2=O)cc1O)CCCC(C)(C)O | > 200 µM
CC(C)=CCC/C(C)=C/Cc1c(O)ccc(-c2coc3cc(O)cc(O)c3c2=O)c1O | 92 µM

Target: T1, Tyrosinase
Test: not given
Details: not given
Remark: another data set of the same source

SMILES | Ki
CC(C)=CCC/C(C)=C/Cc1c(O)ccc(C2COc3cc(O)cc(O)c3C2=O)c1O (stereo unspecified) | 76.4 µM
COc1c2c(cc3c1C[C@H](c1ccc(O)cc1O)CO3)OC(C)(C)C=C2 | 0.13 µM
CC(C)=CCC/C(C)=C/Cc1c(O)ccc(C2(O)COc3cc(O)cc(O)c3C2=O)c1O (stereo unspecified) | 81.4 µM
COc1cc(O)ccc1C1COc2cc3c(c(O)c2C1=O)C=CC(C)(C)O3 (stereo unspecified) | 56.7 µM

Target: T1, Tyrosinase
Test: not given
Details: not given
Remark: another data set of the same source

SMILES | Ki
CC(C)=CCC/C(C)=C/Cc1c(O)ccc(C2COc3cc(O)cc(O)c3C2=O)c1O (stereo unspecified) | 1.8 µM
COc1c2c(cc3c1C[C@H](c1ccc(O)cc1O)CO3)OC(C)(C)C=C2 | 0.019 µM
CC(C)=CCC/C(C)=C/Cc1c(O)ccc(C2(O)COc3cc(O)cc(O)c3C2=O)c1O (stereo unspecified) | 7.5 µM
CC(C)=CCC/C(C)=C/Cc1c(O)ccc(-c2coc3cc(O)cc(O)c3c2=O)c1O | 49.7 µM

Target: T2, Tyrosinase (Agaricus bisporus) (UniProt O42713)
T2 sequence (whole entry): T1 sequence (O42713 whole entry)
Test: not given
Details: not given

SMILES | inhibition
CC(C)=CCC/C(C)=C/Cc1c(O)ccc(C2COc3cc(O)cc(O)c3C2=O)c1O (stereo unspecified) | Dose-dependent effect
COc1c2c(cc3c1C[C@H](c1ccc(O)cc1O)CO3)OC(C)(C)C=C2 | Dose-dependent effect
CC(C)=CCC/C(C)=C/Cc1c(O)ccc(C2(O)COc3cc(O)cc(O)c3C2=O)c1O (stereo unspecified) | Dose-dependent effect
CC(C)=CCC/C(C)=C/Cc1c(O)ccc(-c2coc3cc(O)cc(O)c3c2=O)c1O | Dose-dependent effect

Test system: B16
Test: Potency index, ratio of kojic acid IC50 to compound IC50 for alpha-MSH-stimulated melanin production in mouse B16 cells
Type: functional
Details: not given

SMILES | Ratio IC50
COc1c2c(cc3c1C[C@H](c1ccc(O)cc1O)CO3)OC(C)(C)C=C2 | 200

Target: T2, Tyrosinase (Agaricus bisporus)
Test: not given
Details: not given
Remark: another data set of the same source

SMILES | inhibition
CC(C)=CCC/C(C)=C/Cc1c(O)ccc(C2COc3cc(O)cc(O)c3C2=O)c1O (stereo unspecified) | Dose-dependent effect
COc1c2c(cc3c1C[C@H](c1ccc(O)cc1O)CO3)OC(C)(C)C=C2 | Dose-dependent effect
CC(C)=CCC/C(C)=C/Cc1c(O)ccc(C2(O)COc3cc(O)cc(O)c3C2=O)c1O (stereo unspecified) | Dose-dependent effect
CC(C)=CCC/C(C)=C/Cc1c(O)ccc(-c2coc3cc(O)cc(O)c3c2=O)c1O | Dose-dependent effect
